For 25 compounds, pest or weed control and logP results are on record in patent US8785692B2, “Substituted phenylamidines and the use thereof as fungicides” (priority 2007, dated 2014).

Where two headings read alike, the source gives them in different places. A value given as a limit tells only on which side of the number the result lay.

Broadly, the logP is a log measure of how a compound divides between an organic and an aqueous phase.

For one data set, the system named is Sphaerotheca fuliginea. Nature of the data set: Sphaerotheca test (cucumber) / protective. In kind it is in vivo. Particulars: Podosphaera fuliginea, 168 h, read-out: efficacy. How it is done:
Sphaerotheca Test (Cucumber)/Protective
Solvent: 49 parts by weight of N,N-dimethylformamide
Emulsifier: 1 part by weight of alkylaryl polyglycol ether
To produce a suitable preparation of active compound, 1 part by weight of active compound is mixed with the stated amounts of solvent and emulsifier, and the concentrate is diluted with water to the desired concentration.
To test for protective activity, young cucumber plants are sprayed with the active compound preparation at the stated application rate. 1 day after the treatment, the plants are inoculated with a spore suspension of Sphaerotheca fuliginea. The plants are then placed in a greenhouse at 70% relative atmospheric humidity and a temperature of 23° C.
Evaluation is carried out 7 days after the inoculation. 0% means an efficacy which corresponds to that of the control, whereas an efficacy of 100% means that no infection is observed.

Data set [1] can be described thus: logP (neutral / acidic, pH 2.3).
Setting [2] is: cucumber, protective, 500 ppm active compound, evaluation 7 days after inoculation.

As for `CCN(C)C=Nc1cc(C)c(/C(C)=N/OCc2nc(-c3ccccc3)cs2)cc1C` [Compound 21, N′-(2,5-dimethyl-4-{(1E)-N-[(4-phenyl-1,3-thiazol-2-yl)meth-oxy]ethanimidoyl}phenyl)-N-ethyl-N-methylimidoformamide], in the data set on Sphaerotheca fuliginea (setting [2]), the pest or weed control at 500 ppm is not below 70%. The log partition coefficient (logP) is 5.1 in data set [1] and 2.3 in data set [1] (pH 2.3).

Take `CCN(C)C=Nc1cc(C)c(/C(C)=N/OCc2ccc(C(C)(C)C)cc2)cc1C` [Compound 12, N′-(4-{(1E)-N-[(4-tert-butylbenzyl)oxy]ethanimidoyl}-2,5-dimethylphenyl)-N-ethyl-N-methylimidoformamide]: the pest or weed control at 500 ppm in the data set with Sphaerotheca fuliginea (setting [2]) is not below 70%. Further, the logP in data set [1] came out at 6.26; in data set [1] (pH 2.3), 3.05.

In the case of `CC#CCO/N=C(\C)c1cc(C)c(N=CN(C)CC)cc1C` [Compound 16, N′-{4-[(1E)-N-(but-2-yn-1-yloxy)ethanimidoyl]-2,5-dimethylphenyl}-N-ethyl-N-methylimidoformamide], the pest or weed control at 500 ppm with Sphaerotheca fuliginea was not below 70%. In addition, the lipophilicity (logP) is 3.91 in data set [1] and 1.72 in data set [1] (pH 2.3).

As to `CCN(C)C=Nc1cc(C)c(/C(C)=N/OCC=C(C)C)cc1C` [Compound 33, N′-(2,5-dimethyl-4-{(1E)-N-[(3-methylbut-2-en-1-yl)oxy]ethanimidoyl}phenyl)-N-ethyl-N-methylimidoformamide], the pest or weed control at 500 ppm with Sphaerotheca fuliginea was not below 70%. The logP in data set [1] was 4.86; in data set [1] (pH 2.3), 2.24.

Take `CCN(C)C=Nc1cc(C)c(/C(C)=N/OCc2c(C)noc2C)cc1C` [Compound 36, N′-(4-{(1E)-N-[(3,5-dimethylisoxazol-4-yl)methoxy]ethanimidoyl}-2,5-dimethylphenyl)-N-ethyl-N-methylimidoformamide]: in the data set with Sphaerotheca fuliginea (setting [2]), the pest or weed control at 500 ppm is not below 70%. Also, the logP is 3.63 in data set [1] and 1.68 in data set [1] (pH 2.3).

On to `CCN(C)C=Nc1cc(C)c(/C(C)=N/OCCc2ccc(Cl)cc2)cc1C` [Compound 25, N′-(4-{(1E)-N-[2-(4-chloro-phenyl)ethoxy]ethanimidoyl}-2,5-dimethylphenyl)-N-ethyl-N-methylimidoformamide], for which the pest or weed control at 500 ppm with Sphaerotheca fuliginea (setting [2]) was not below 70%. Further, the logP in data set [1] was 5.55; in data set [1] (pH 2.3), 2.56.

Take `CCN(C)C=Nc1cc(C)c(/C(C)=N/OCc2ccc(Cl)nc2)cc1C` [Compound 32, N′-(4-{(1E)-N-[(6-chloropyridin-3-yl)methoxy]ethanimidoyl}-2,5-dimethylphenyl)-N-ethyl-N-methylimidoformamide]: the pest or weed control at 500 ppm in the data set with Sphaerotheca fuliginea (setting [2]) is not below 70%. The log partition coefficient (logP) came to 3.95 in data set [1] and 1.67 in data set [1] (pH 2.3).

As for `CCCO/N=C(\C)c1cc(C)c(N=CN(C)CC)cc1C` [Compound 37, N′-{4-[(1E)-N-(n-propoxy)ethanimidoyl]-2,5-dimethylphenyl}-N-ethyl-N-methylimidoformamide], in the data set with Sphaerotheca fuliginea (setting [2]), the pest or weed control at 500 ppm was not below 70%. Moreover, the logP turned out to be 4.43 in data set [1] and 1.9 in data set [1] (pH 2.3).

As to `CCN(C)C=Nc1cc(C)c(/C(C)=N/OCCOc2cccc(C(F)(F)F)c2)cc1C` [Compound 34, N′-{2,5-dimethyl-4-[(1E)-N-{2-[3-(trifluoromethyl)phenoxy]ethoxy}ethan-imidoyl]phenyl}-N-ethyl-N-methylimidoformamide], in the data set with Sphaerotheca fuliginea (setting [2]), the pest or weed control at 500 ppm is not below 70%. Also, the values for the logP in data set [1] and in data set [1] (pH 2.3) were 5.28 and 2.59, respectively.

In the case of `CCN(C)C=Nc1cc(C)c(/C(C)=N/OCC(F)(F)F)cc1C` [Compound 17, N′-{2,5-dimethyl-4-[(1E)-N-(2,2,2-trifluoroethoxy)ethanimidoyl]phenyl}-N-ethyl-N-methylimidoformamide], the pest or weed control at 500 ppm in the data set with Sphaerotheca fuliginea (setting [2]) was not below 70%. Moreover, the log partition coefficient (logP) in data set [1] came to 4.24; in data set [1] (pH 2.3) it was 1.88.

On to `CCN(C)C=Nc1cc(C)c(/C(C)=N/OCc2ccccc2)cc1C` [Compound 31, N′-(4-{(1E)-N—[benzyloxy]-ethanimidoyl}-2,5-dimethylphenyl)-N-ethyl-N-methylimidoformamide], for which the pest or weed control at 500 ppm in the data set on Sphaerotheca fuliginea (setting [2]) was not below 70%. The logP in data set [1] was 4.65; in data set [1] (pH 2.3), 2.07.

On to `CCN(C)C=Nc1cc(C)c(/C(C)=N/Oc2ccccc2)cc1C` [Compound 11, N′-{2,5-dimethyl-4-[(1E)-N-phenoxyethanimidoyl]-phenyl}-N-ethyl-N-methylimidoformamide], for which the pest or weed control at 500 ppm in the data set with Sphaerotheca fuliginea (setting [2]) was not below 70%. Besides, in data set [1] (pH 2.3), the logP is 2.21.

As for `CCN(C)C=Nc1cc(C)c(/C(C)=N/OCc2ccc(Cl)c(Cl)c2)cc1C` [Compound 30, N′-(4-{(1E)-N-[(3,4-dichlorobenzyl)oxy]-ethanimidoyl}-2,5-dimethylphenyl)-N-ethyl-N-methylimidoformamide], the pest or weed control at 500 ppm with Sphaerotheca fuliginea is not below 70%. Also, the logP in data set [1] was 5.79; in data set [1] (pH 2.3), 2.71.

Take `CCN(C)C=Nc1cc(C)c(/C(C)=N/OCC[Si](C)(C)C)cc1C` [Compound 44, N′-(2,5-dimethyl-4-{(1E)-N-[2-(trimethylsilyl)ethoxy]ethanimidoyl}phenyl)-N-ethyl-N-methylimidoformamide]: the logP in data set [1] was determined as 6.21; in data set [1] (pH 2.3) it was 2.76.

In the case of `CCN(C)C=Nc1cc(C)c(/C(C)=N/OC(C2CC2)C2CC2)cc1C` [Compound 20, N′-{4-[(1E)-N-(dicyclopropylmethoxy)ethanimidoyl]-2,5-dimethylphenyl}-N-ethyl-N-methylimidoformamide], in the data set with Sphaerotheca fuliginea (setting [2]), the pest or weed control at 500 ppm is not below 70%. Also, the logP was found to be 5.33 in data set [1] and 2.38 in data set [1] (pH 2.3).

On to `CCN(C)C=Nc1cc(C)c(/C(C)=N/OCc2c(Cl)cccc2Cl)cc1C` [Compound 29, N′-(4-{(1E)-N-[(2,6-dichlorobenzyl)oxy]ethanimidoyl}-2,5-dimethylphenyl)-N-ethyl-N-methylimidoformamide], for which the pest or weed control at 500 ppm in the data set on Sphaerotheca fuliginea (setting [2]) is not below 70%. The logP in data set [1] amounted to 5.51; in data set [1] (pH 2.3), 3.75.

Consider `CCN(C)C=Nc1cc(C)c(/C(C)=N/OC/C=C/c2ccccc2)cc1C` [Compound 19, N′-{2,5-dimethyl-4-[(1E)-N-{[(2E)-3-phenylprop-2-en-1-yl]oxy}ethanimidoyl]phenyl}-N-ethyl-N-methylimidoformamide], for which the logP is 5.2 in data set [1] and 2.32 in data set [1] (pH 2.3).

Consider `CCN(C)C=Nc1cc(C)c(/C=N/OCCC(C)(C)C)cc1C` [Compound 48, N′-(4-{(E)-[(3,3-dimethylbutoxy)imino]methyl}-2,5-dimethylphenyl)-N-ethyl-N-methylimidoformamide], for which the figures for the logP in data set [1] and in data set [1] (pH 2.3) were 5.89 and 2.3, respectively.

Consider `CCN(C)C=Nc1cc(C)c(/C(C)=N/OC2CCCC2)cc1C` [Compound 14, N′-{4-[(1E)-N-(cyclopentyloxy)ethanimidoyl]-2,5-dimethylphenyl}-N-ethyl-N-methylimidoformamide], for which the pest or weed control at 500 ppm in the data set on Sphaerotheca fuliginea (setting [2]) was not below 70%. Further, the logP was 5.24 in data set [1] and 2.2 in data set [1] (pH 2.3).

Take `CCN(C)C=Nc1cc(C)c(/C=N/OCc2ccccc2)cc1C` [Compound 3, N′-(4-{(E)-[(benzyloxy)imino]methyl}-2,5-di-methylphenyl)-N-ethyl-N-methylimidoformamide]: the pest or weed control at 500 ppm with Sphaerotheca fuliginea (setting [2]) was not below 70%. In data set [1] (pH 2.3), this compound came in with a log partition coefficient (logP) of 2.02.

The compound `CCN(C)C=Nc1cc(C)c(/C(C)=N/Nc2ccccc2F)cc1C` [Compound 45, N-ethyl-N′-(4-{(1E)-1-[2-(2-fluorophenyl)hydrazinylidene]ethyl}-2,5-dimethylphenyl)-N-methylimidoformamide] registered a lipophilicity (logP) in data set [1] (pH 2.3) of 1.91.

As for `CCN(C)C=Nc1cc(C)c(/C=N/OC(C)C)cc1C` [Compound 40, N-ethyl-N′-{4-[(E)-(isopropoxyimino)methyl]-2,5-dimethylphenyl}-N-methylimidoformamide], in the data set on Sphaerotheca fuliginea (setting [2]), the pest or weed control at 500 ppm is not below 70%. For the same compound, the logP worked out at 4.41 in data set [1] and 1.76 in data set [1] (pH 2.3).

Take `C#CC(C)O/N=C(\C)c1cc(C)c(N=CN(C)CC)cc1C` (centres unmarked) [Compound 15, N′-(2,5-dimethyl-4-{(1E)-N-[(1-methylprop-2-yn-1-yl)oxy]ethanimidoyl}phenyl)-N-ethyl-N-methylimidoformamide]: the pest or weed control at 500 ppm in the data set with Sphaerotheca fuliginea (setting [2]) is not below 70%. Also, the logP in data set [1] amounted to 4; in data set [1] (pH 2.3), 1.8.

For the compound `CCN(C)C=Nc1cc(C)c(/C=N/OC(C)(C)C)cc1C` [Compound 39, N′-{4-[(E)-(tert-butoxyimino)methyl]-2,5-dimethylphenyl}-N-ethyl-N-methylimidoformamide], the pest or weed control at 500 ppm with Sphaerotheca fuliginea is not below 70%. For the same compound, the logP in data set [1] came to 4.98; in data set [1] (pH 2.3), 2.11.

`CCN(C)C=Nc1cc(C)c(/C(C)=N/OCc2cccc(Oc3ccccc3)c2)cc1C` [Compound 22, N′-(2,5-dimethyl-4-{(1E)-N-[(3-phenoxybenzyl)oxy]ethanimidoyl}phenyl)-N-ethyl-N-methylimidoformamide]: in the data set on Sphaerotheca fuliginea (setting [2]), the pest or weed control at 500 ppm is not below 70%. The logP in data set [1] stood at 5.77; in data set [1] (pH 2.3), 2.69.
